Results published in patent US5633219A, “5H-pyrrolo(3',4':5,6)(1,4)dithiin o(2,3-C)(1,2,5)thiadiazole-5,7(6H)-dione, compositions containing them and their use as antimicrobial and marine antifouling agents” (The Dow Chemical Company, priority 1996, dated 1997).
In brackets after ≈: the same amount, converted by molar mass. Read-outs that look alike come from different tables or passages of the source.

Assays:
[1] = test system: Staphylococcus aureus (Sa); test: Minimum inhibitory concentration, nutrient agar, Staphylococcus aureus; settings: 48 h
[2] = test system: Penicillium chrysogenum (PC); test: Minimum inhibitory concentration, malt yeast agar, Penicillium chrysogenum; type: cell-based, Penicillium chrysogenum ATCC 9480; settings: malt yeast agar, 30° C, 72 hours (fungi); read-out: Minimum Inhibitory Concentration, Pc
Method: (§1) Malt yeast agar is prepared by adding 3 g yeast extract and 45 g malt agar per liter of deionized water. The specific agar is dispensed in 30 mL aliquots into 25×200 mm test tubes, capped and autoclaved for 15 minutes at 115° C.
(§2) The inoculation with the yeast and fungi is accomplished as follows. Cultures of yeast and fungi are incubated for seven days on malt yeast agar at 30° C. These cultures are used to prepare suspensions by the following procedure. A suspension of each organism is prepared by adding 10 mL of sterile saline and 10 microliters of octylphenoxy polyethoxy ethanol to the agar slant of yeast or fungi. The sterile saline/octylphenoxy polyethoxy ethanol solution is then agitated with a sterile swab to suspend the microorganism grown on the slant. Each resulting suspension is diluted into sterile saline (1 part suspension to 9 parts sterile saline). Aliquots of these dilutions are placed in individual wells of Steer's Replicator and petri plates inoculated as previously described. The petri plates are incubated at 30° C. and read after 48 hours for yeast and 72 hours for fungi.

[3] = test system: Fusarium oxysporum (Of); test: Minimum inhibitory concentration, malt yeast agar, Fusarium oxysporum; type: cell-based, Fusarium oxysporum ATCC 48112; settings: 30° C, 72 hours (fungi), read-out: Minimum Inhibitory Concentration, Fo
Method: as §1, §2

[4] = test system: marine organisms; test: Marine antifouling rating of coated test panels exposed under a marine surface; settings: scale 10 (completely free of growth) to 0 (completely covered), 1.0 g compound in 9.0 g latex binder
Method: Test panels are prepared from clear, rigid polyvinyl chloride film that is 0.381×10^-3 m thick and has one textured surface. The test panels are 0.1524 m by 0.1524 m squares that have 0.00635 m holes punched at corners on 0.127 m centers. A 0.102 square template, with a 0.067 m diameter hole at the center, is attached to the center of the textured surface of the test panels.
A candidate marine antifoulant compound (1.0 g) is stirred into a resinous latex binder (9.0 g). A portion of the compound/binder mixture (1.5 g) is added to the center of the test panel and uniformly spread over the circular area inside the template.
Water is added dropwise as needed to properly spread the compound/binder mixture. The template prevents the compound/binder mixture from spreading beyond the uncovered area. The test panel is allowed to sit for between 10 to 30 minutes until the edge of the spread compound/binder mixture has dried. The template is then removed. The test panel is then allowed to dry for 8 to 12 hours at room temperature.
Two test panels are prepared for each candidate marine antifoulant compound. Two control test panels are also prepared by only treating with the resinous latex binder. One test panel of each candidate marine […] compound is attached over a white background to the topside of an exposure support apparatus. The second test panel is attached over a black background to the underside of the exposure support apparatus. The exposure support apparatus is placed horizontally 0.0254 m under a marine surface with the white background topside facing up. […]
After being removed from the exposure support apparatus, each test panel is inspected and rated for marine organism growth on both the treated and untreated areas of the test panel. The marine organisms present on the treated and untreated areas are noted. The presence of algae spores and bacterial slime are noted but not included in rating each test panel. The test panels are rated on a scale from 10 (representing completely free of marine organism growth) to 0 (representing completely covered with marine organism growth).

[5] = test system: Klebsiella pneumoniae (Kp); test: Minimum inhibitory concentration, nutrient agar, Klebsiella pneumoniae; settings: 48 h
[6] = test system: Proteus vulgaris (Pv); test: Minimum inhibitory concentration, nutrient agar, Proteus vulgaris; settings: 48 h
[7] = test system: Saccharomyces cerevisiae (Sc); test: Minimum inhibitory concentration, malt yeast agar, Saccharomyces cerevisiae; type: cell-based, Saccharomyces cerevisiae ATCC 4105; settings: malt yeast agar, 30° C, 48 hours (yeast), read-out: Minimum Inhibitory Concentration, Sc
Method: as §1, §2

[8] = test system: Aspergillus niger (An); test: Minimum inhibitory concentration, malt yeast agar, Aspergillus niger; type: cell-based, Aspergillus niger ATCC 16404; settings: 30° C, 72 hours (fungi)
Method: as §1, §2

[9] = test system: Candida albicans (Ca); test: Minimum inhibitory concentration, malt yeast agar, Candida albicans; type: cell-based, Candida albicans ATCC 10231; settings: malt yeast agar, 30° C, 48 hours (yeast); read-out: Minimum Inhibitory Concentration, Ca
Method: as §1, §2

[10] = test system: Escherichia coli (Ec); test: Minimum inhibitory concentration, nutrient agar, Escherichia coli; settings: 48 h
[11] = test system: Pseudomonas aeruginosa (PRD-10); test: Minimum inhibitory concentration, nutrient agar, Pseudomonas aeruginosa PRD-10; settings: 48 h
[12] = test system: Salmonella choleraesuis (Sc); test: Minimum inhibitory concentration, nutrient agar, Salmonella choleraesuis; type: cell-based, Salmonella choleraesuis ATCC 10708; settings: Salmonella enterica, 30° C, 48 hours
[13] = test system: Aureobasidium pullulan (Ap); test: Minimum inhibitory concentration, malt yeast agar, Aureobasidium pullulan; type: cell-based, Aureobasidium pullulan ATCC 16622; settings: 30° C, 48 hours for yeast and 72 hours for fungi
Method: as §1, §2

[14] = test system: Trichoderma viride (Tv); test: Minimum inhibitory concentration, malt yeast agar, Trichoderma viride; type: cell-based, Trichoderma viride ATCC 8678; settings: malt yeast agar, 30° C, 72 hours (fungi); read-out: Minimum Inhibitory Concentration, Tv
Method: as §1, §2

[15] = test system: Bacillus subtilis (Bs); test: Minimum inhibitory concentration, nutrient agar, Bacillus subtilis; settings: 48 h
[16] = test system: Pseudomonas aeruginosa (Pa); test: Minimum inhibitory concentration, nutrient agar, Pseudomonas aeruginosa; type: cell-based, Pseudomonas aeruginosa ATCC 10145; settings: 30° C, 48 hours
[17] = test system: Enterobacter aerogenes (Ea); test: Minimum inhibitory concentration, nutrient agar, Enterobacter aerogenes; settings: Klebsiella aerogenes, 48 h
[18] = pH 6.8, read-out: Minimum inhibitory Concentration, Sa
[19] = pH 8.2, read-out: Minimum inhibitory Concentration, Sa
[20] = pH 6.8, read-out: Minimum inhibitory Concentration, Kp
[21] = pH 8.2, read-out: Minimum inhibitory Concentration, Kp
[22] = pH 6.8, read-out: Minimum inhibitory Concentration, Pv
[23] = pH 8.2, read-out: Minimum inhibitory Concentration, Pv
[24] = pH 6.8, read-out: Minimum inhibitory Concentration, Ec
[25] = pH 8.2, read-out: Minimum inhibitory Concentration, Ec
[26] = pH 6.8, read-out: Minimum inhibitory Concentration, PRD
[27] = pH 8.2, read-out: Minimum inhibitory Concentration, PRD
[28] = pH 6.8, read-out: Minimum inhibitory Concentration, Bs
[29] = pH 8.2, read-out: Minimum inhibitory Concentration, Bs
[30] = pH 6.8, read-out: Minimum inhibitory Concentration, Ea
[31] = pH 8.2, read-out: Minimum inhibitory Concentration, Ea

Compound | MIC [1, 18] [µg/mL] | MIC [1, 19] [µg/mL] | MIC [2] [µg/mL] | MIC [3] [µg/mL] | Marine Antifouling Rating, Bottom Panel ([4]; 6 weeks) | Marine Antifouling Rating, Top Panel ([4]; 6 weeks) | Marine Antifouling Rating, Bottom Panel ([4]; 10 weeks) | Marine Antifouling Rating, Top Panel ([4]; 10 weeks) | Marine Antifouling Rating, Bottom Panel ([4]; 16 weeks) | Marine Antifouling Rating, Top Panel ([4]; 16 weeks) | MIC [5, 20] [µg/mL] | MIC [5, 21] [µg/mL] | MIC [6, 22] [µg/mL] | MIC [6, 23] [µg/mL] | MIC [7] [µg/mL] | MIC [8] [µg/mL] | MIC [9] [µg/mL] | MIC [10, 24] [µg/mL] | MIC [10, 25] [µg/mL] | MIC [11, 26] [µg/mL] | also measured
CCCn1c(=O)c2sc3nsnc3sc=2c1=O [IV, 6-n-Propyl-5H-Pyrrolo(3',4':5,6)(1,4)dithiino-(2,3-C)(1,2,5)thiadiazole-5,7(6H) -dione] | 50 (≈ 175 µM) | 50 (≈ 175 µM) | < 1 | < 1 | 9 | 9 | 7 | 7 | 7 | 7 | > 500 | > 500 | 250 (≈ 876 µM) | > 500 | < 1 | < 1 | < 1 | > 500 | > 500 | > 500 | MIC [11, 27]: > 500 µg/mL; MIC ([12]; pH 6.8, nutrient agar): 500 µg/mL (≈ 1750 µM); MIC ([12]; pH 8.2, nutrient agar): > 500 µg/mL; MIC [13]: < 1 µg/mL; MIC [14]: < 1 µg/mL; MIC [15, 28]: < 10 µg/mL; MIC [15, 29]: 250 µg/mL (≈ 876 µM); MIC ([16]; pH 6.8, nutrient agar): > 500 µg/mL; MIC ([16]; pH 8.2, nutrient agar): > 500 µg/mL; MIC [17, 30]: > 500 µg/mL; MIC [17, 31]: > 500 µg/mL
O=c1[nH]c(=O)c2sc3nsnc3sc1=2 [Example I, 5H-Pyrrolo(3',4':5,6)(1,4)dithiino-(2,3-C) (1,2,5)thiadiazole-5,7 (6H) -dione] | 100 (≈ 411 µM) | > 500 | < 1 | < 1 | 10 | 10 | 9 | 7 | 9 | 8 | 100 (≈ 411 µM) | > 500 | 50 (≈ 206 µM) | > 500 | < 1 | < 1 | 5 (≈ 20.6 µM) | 100 (≈ 411 µM) | > 500 | 500 (≈ 2060 µM) | MIC [11, 27]: > 500 µg/mL; MIC ([12]; pH 6.8, nutrient agar): 100 µg/mL (≈ 411 µM); MIC ([12]; pH 8.2, nutrient agar): > 500 µg/mL; MIC [13]: < 1 µg/mL; MIC [14]: 5 µg/mL (≈ 20.6 µM); MIC [15, 28]: < 10 µg/mL; MIC [15, 29]: > 500 µg/mL; MIC ([16]; pH 8.2, nutrient agar): > 500 µg/mL; MIC [17, 30]: 250 µg/mL (≈ 1030 µM); MIC [17, 31]: > 500 µg/mL
